The assay concerns L1210 leukemia ip in BDF1 mice, survival T/C. The experiment in a line: NCI In Vivo Anticancer Drug Screen. Data for tumor model L1210 Leukemia (intraperitoneal) in B6D2F1 (BDF1) mice. The settings on record: endpoint: mean survival time, higher = longer survival. In short, it runs like this: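 Tumor was transplanted into mice, which were then dosed with test compound or vehicle alone. Survival was recorded for each group, and the treated figure was expressed relative to the control figure.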

The mark [1] stands for this setting: dose: 100.0 mg/kg/injection, schedule: Q01DX001 (ip), vehicle: carboxymethylcellulose (CMC).
The mark [2] stands for this setting: dose: 200.0 mg/kg/injection, schedule: Q01DX001 (ip), vehicle: carboxymethylcellulose (CMC).
The mark [3] stands for this setting: dose: 400.0 mg/kg/injection, schedule: Q01DX001 (ip), vehicle: carboxymethylcellulose (CMC).
Setting [4] is: dose: 50.0 mg/kg/injection, schedule: Q01DX001 (ip), vehicle: carboxymethylcellulose (CMC).
[5] abbreviates: dose: 100.0 mg/kg/injection, schedule: Q04DX003 (ip), vehicle: saline with Tween-80.
[6] abbreviates: dose: 200.0 mg/kg/injection, schedule: Q04DX003 (ip), vehicle: saline with Tween-80.
Setting [7] is: dose: 400.0 mg/kg/injection, schedule: Q04DX003 (ip), vehicle: saline with Tween-80.
[8] abbreviates: dose: 100.0 mg/kg/injection, schedule: Q04DX003 (ip), vehicle: Klucel (hydroxypropylcellulose) (HPC).
The mark [9] stands for this setting: dose: 200.0 mg/kg/injection, schedule: Q04DX003 (ip), vehicle: Klucel (hydroxypropylcellulose) (HPC).
Setting [10] is: dose: 400.0 mg/kg/injection, schedule: Q04DX003 (ip), vehicle: Klucel (hydroxypropylcellulose) (HPC).
The mark [11] stands for this setting: dose: 50.0 mg/kg/injection, schedule: Q01DX009 (ip), vehicle: saline with Tween-80.
Setting [12] is: dose: 100.0 mg/kg/injection, schedule: Q01DX009 (ip), vehicle: saline with Tween-80.
Setting [13] is: dose: 200.0 mg/kg/injection, schedule: Q01DX009 (ip), vehicle: saline with Tween-80.
Setting [14] is: dose: 400.0 mg/kg/injection, schedule: Q01DX009 (ip), vehicle: saline with Tween-80.

Values joined by “and” are separate entries in the source; they are usually repeats but may differ in a detail not shown here. Equal entries are not always repeated. Inconclusive results and toxic doses are left out.

On to `CC(O)C(N)C(=O)O` (configuration not stated), for which the T/C reads like this: (dose: 12.5 mg/kg/injection, schedule: Q04DX002 (ip), vehicle: saline) 103 % of control and 97 % of control; (dose: 18.75 mg/kg/injection, schedule: Q04DX003 (ip), vehicle: saline) 101 % of control; (dose: 25.0 mg/kg/injection, schedule: Q04DX002 (ip), vehicle: saline) 107 % of control; (dose: 37.5 mg/kg/injection, schedule: Q04DX003 (ip), vehicle: saline) 98 % of control; (dose: 50.0 mg/kg/injection, schedule: Q04DX002 (ip), vehicle: saline) 107 % of control; (dose: 75.0 mg/kg/injection, schedule: Q04DX003 (ip), vehicle: saline) 108 % of control and 114 % of control. The T/C runs as follows: under setting [1], 87 % of control; (dose: 100.0 mg/kg/injection, schedule: Q04DX002 (ip), vehicle: saline) 107 % of control; (dose: 150.0 mg/kg/injection, schedule: Q04DX003 (ip), vehicle: saline) 108 % of control; under setting [2], 91 % of control; (dose: 200.0 mg/kg/injection, schedule: Q01DX009 (ip), vehicle: Klucel (hydroxypropylcellulose) (HPC)) 91 % of control; (dose: 200.0 mg/kg/injection, schedule: Q04DX002 (ip), vehicle: saline) 93 % of control. The T/C was 94 % of control (dose: 300.0 mg/kg/injection, schedule: Q04DX003 (ip), vehicle: saline); 89 % of control under setting [3]; 107 % of control (dose: 400.0 mg/kg/injection, schedule: Q04DX002 (ip), vehicle: saline).
Take `COc1ccccc1CN1CCCOP1(=O)Nc1ccccc1C` (configuration not stated): the T/C is, setting by setting: under setting [4], 109 % of control; under setting [1], 93 % of control; under setting [2], 96 % of control; under setting [3], 91 % of control.
As to `CCCOc1ccc(-c2nc(-c3ccc(N=Cc4ccc(N(CCCOS(C)(=O)=O)CCCOS(C)(=O)=O)cc4)cc3)cs2)cc1`, the T/C reads like this: under setting [5], 91 % of control; under setting [6], 86 % of control; under setting [7], 89 % of control.
Taken in the same sequence, the figures for `COc1cc(Br)c(CCC(N)=O)cc1OC` were 96 % of control, 95 % of control and 93 % of control.
For the compound `COc1cc2ccc3c4cc5c(cc4c[n+](C)c3c2cc1OC)OCO5`, the T/C is, setting by setting: (dose: 10.0 mg/kg/injection, schedule: Q01DX009 (ip), vehicle: saline) 124 % of control; (dose: 20.0 mg/kg/injection, schedule: Q01DX009 (ip), vehicle: saline) 112 % of control; (dose: 40.0 mg/kg/injection, schedule: Q01DX009 (ip), vehicle: saline) 122 % of control.
`CC1CP(=O)(Cc2ccccc2)C(c2ccccc2)=C1O` (configuration not stated): the T/C under setting [8] was 90 % of control, the T/C under setting [9] is 93 % of control and the T/C under setting [10] is 96 % of control.
As to `CCC(C)COC(=O)Nc1cccc(Cl)c1` (configuration not stated), the T/C is 102 % of control (dose: 100.0 mg/kg/injection, schedule: Q01DX001 (ip), vehicle: other); 107 % of control (dose: 200.0 mg/kg/injection, schedule: Q01DX001 (ip), vehicle: other); 105 % of control (dose: 400.0 mg/kg/injection, schedule: Q01DX001 (ip), vehicle: other).
Regarding `CC(=O)COCC1CO1` (configuration not stated), the T/C by setting is: under setting [11], 92 % of control; under setting [12], 92 % of control; under setting [13], 100 % of control.
Consider `CS(=O)(=O)c1ccc(F)c([N+](=O)[O-])c1`, for which the T/C reads like this: (dose: 25.0 mg/kg/injection, schedule: Q04DX003 (ip), vehicle: Klucel (hydroxypropylcellulose) (HPC)) 92 % of control; (dose: 50.0 mg/kg/injection, schedule: Q04DX003 (ip), vehicle: Klucel (hydroxypropylcellulose) (HPC)) 92 % of control; under setting [8], 95 % of control.
In the case of `O=C1N=C(C(F)(F)F)N=C1c1[nH]c(C(F)(F)F)nc1O`, the T/C by setting is: under setting [12], 95 % of control; under setting [5], 104 % of control; under setting [13], 98 % of control; under setting [6], 100 % of control; under setting [14], 102 % of control; under setting [7], 105 % of control.
`OC1c2ccccc2-c2c(F)c(F)c(F)c(F)c21` (configuration not stated): the T/C by setting is: under setting [4], 96 % of control; under setting [1], 97 % of control; under setting [2], 94 % of control; under setting [3], 111 % of control.
In the case of `O=C(NCc1cnccn1)Oc1ccc([N+](=O)[O-])cc1`, the T/C is 93 % of control under setting [11], 103 % of control under setting [12] and 98 % of control under setting [14].
Turning to `CC(=O)C1=C(c2ccccc2)C(=O)C(C(C)=O)=C(c2ccccc2)C1=O`, the T/C was 100 % of control under setting [8], 100 % of control under setting [9] and 96 % of control under setting [10].
With `CC(C)(NCCNC(C)(C)[P+](=O)O)[P+](=O)O`, the T/C under setting [8] is 96 % of control, the T/C under setting [9] is 93 % of control and the T/C under setting [10] was 93 % of control.
For `OC(C(c1ccccc1)c1ccccn1)(C(F)(F)F)C(F)(F)F` (configuration not stated), the T/C is 106 % of control under setting [12]; 94 % of control under setting [5]; 104 % of control under setting [13]; 100 % of control under setting [6]; 97 % of control under setting [14]; 97 % of control under setting [7].
Take `C1O[C@@H]1[C@@H]1CO1`: the T/C was 110 % of control (dose: 10.5 mg/kg/injection, schedule: Q01DX015 (ip), vehicle: saline); 110 % of control (dose: 18.0 mg/kg/injection, schedule: Q01DX015 (ip), vehicle: saline); 111 % of control and 116 % of control (dose: 44.0 mg/kg/injection, schedule: Q01DX001 (ip), vehicle: saline); 150 % of control (dose: 66.0 mg/kg/injection, schedule: Q01DX001 (ip), vehicle: saline); 173 % of control (dose: 100.0 mg/kg/injection, schedule: Q01DX001 (ip), vehicle: saline); 167 % of control (dose: 100.0 mg/kg/injection, schedule: Q01DX010 (ip), vehicle: water). Besides, the T/C is 186 % of control (dose: 200.0 mg/kg/injection, schedule: Q01DX010 (ip), vehicle: water); 189 % of control (dose: 400.0 mg/kg/injection, schedule: Q01DX010 (ip), vehicle: water); 157 % of control (dose: 600.0 mg/kg/injection, schedule: Q01DX010 (ip), vehicle: water).
`Cc1ccc2[nH]c(=S)n(-c3ccc(C)c(Cl)c3)c(=O)c2c1`: the T/C runs as follows: (dose: 100.0 mg/kg/injection, schedule: Q01DX009 (ip), vehicle: carboxymethylcellulose (CMC)) 95 % of control; (dose: 100.0 mg/kg/injection, schedule: Q04DX002 (ip), vehicle: carboxymethylcellulose (CMC)) 99 % of control and 89 % of control; (dose: 200.0 mg/kg/injection, schedule: Q01DX009 (ip), vehicle: carboxymethylcellulose (CMC)) 93 % of control and 89 % of control; (dose: 200.0 mg/kg/injection, schedule: Q04DX002 (ip), vehicle: carboxymethylcellulose (CMC)) 96 % of control and 99 % of control; (dose: 400.0 mg/kg/injection, schedule: Q01DX009 (ip), vehicle: carboxymethylcellulose (CMC)) 92 % of control and 89 % of control; (dose: 400.0 mg/kg/injection, schedule: Q04DX002 (ip), vehicle: carboxymethylcellulose (CMC)) 92 % of control.
As to `Cc1c(C(=O)Nc2ccc(C3=NCCN3)cc2)cccc1C(=O)Nc1ccc(C2=NCCN2)cc1`, the T/C was 104 % of control (dose: 42.0 mg/kg/injection, schedule: Q01DX Z (ip), vehicle: carboxymethylcellulose (CMC)) and 104 % of control (dose: 85.0 mg/kg/injection, schedule: Q01DX Z (ip), vehicle: carboxymethylcellulose (CMC)).

The record behind these values is PubChem BioAssay AID248 (DTP/NCI, 2004).
